Assay results reported in ChEMBL document CHEMBL5390237, “Discovery of Selective Histone Deacetylase 1 and 2 Inhibitors: Screening of a Focused Library Constructed by Click Chemistry, Kinetic Binding Analysis, and Biological Evaluation” (J Med Chem, 2023).

Target: Histone deacetylase 2 (Homo sapiens, UniProt Q92769)
Experiment: Inhibition of full-length recombinant human C-terminal GST tagged HDAC2 expressed in Sf9 insect cells using aminoluciferin peptide substrate at 100 nM preincubated for 3 hrs followed by substrate addition and measured after 30 mins by HDAC-Glo I/II chemiluminescence assay
Details: time 3.5 hrs

Chain of Histone deacetylase 2 (Q92769 whole entry): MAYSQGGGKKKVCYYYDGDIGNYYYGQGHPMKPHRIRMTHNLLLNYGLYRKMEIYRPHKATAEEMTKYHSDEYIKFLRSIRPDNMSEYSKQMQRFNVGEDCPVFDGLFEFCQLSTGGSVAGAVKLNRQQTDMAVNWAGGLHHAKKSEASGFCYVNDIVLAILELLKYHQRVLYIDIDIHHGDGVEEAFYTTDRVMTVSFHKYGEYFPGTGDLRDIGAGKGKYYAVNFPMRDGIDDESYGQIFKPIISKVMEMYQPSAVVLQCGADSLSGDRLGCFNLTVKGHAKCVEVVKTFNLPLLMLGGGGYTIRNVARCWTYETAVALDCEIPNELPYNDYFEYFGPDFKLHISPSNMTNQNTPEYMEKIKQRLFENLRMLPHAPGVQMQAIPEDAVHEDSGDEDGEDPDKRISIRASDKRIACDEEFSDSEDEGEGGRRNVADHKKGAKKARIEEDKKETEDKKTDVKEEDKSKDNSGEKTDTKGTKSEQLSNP

SMILES	inhibition [%]
Nc1ccc(-c2cccnc2)cc1NC(=O)CCc1cn(CCCCCC(=O)O)nn1	0
Nc1ccc(-c2cccs2)cc1NC(=O)c1ccc(-c2cn(Cc3ccc(-c4ccccc4)cc3)nn2)s1	0
Nc1ccc(-c2ccsc2)cc1NC(=O)CCc1cn(CC(=O)Nc2ccc(F)cc2)nn1	14
Nc1ccc(-c2ccsc2)cc1NC(=O)c1cn(CC23CC4CC(CC(C4)C2)C3)nn1	0
Nc1ccc(-c2cccs2)cc1NC(=O)c1ccc(-c2cn(CCc3cccc(C(F)(F)F)c3)nn2)cc1	3
Nc1ccc(-c2ccsc2)cc1NC(=O)c1cn(Cc2ccc3ccccc3n2)nn1	19
Nc1ccc(-c2ccsc2)cc1NC(=O)CCc1cn(CCc2cccc(C(F)(F)F)c2)nn1	2
Nc1ccc(-c2ccccc2)cc1NC(=O)CCc1cn(-c2ccc(Br)cc2)nn1	0
Nc1ccc(-c2cccs2)cc1NC(=O)c1cn(CCCCC(=O)O)nn1	3
Nc1ccc(-c2ccc(F)cc2)cc1NC(=O)c1cn(CCCCC(=O)O)nn1	22
Nc1ccc(-c2cccnc2)cc1NC(=O)CCc1cn(Cc2cccc(-c3ccccc3)c2)nn1	0
Nc1ccc(-c2cccnc2)cc1NC(=O)CCc1cn(CCc2c[nH]c3ccccc23)nn1	19
Nc1ccc(-c2ccsc2)cc1NC(=O)CCc1cn(Cc2cccc(-c3ccccc3)c2)nn1	0
Nc1ccc(-c2cccs2)cc1NC(=O)CCc1cn(CCc2ccc(C(F)(F)F)cc2)nn1	5
Cc1ccc(-n2cc(C(=O)Nc3cc(-c4ccccc4)ccc3N)nn2)cc1C	0
Cc1csc(CCn2cc(CCC(=O)Nc3cc(-c4cccnc4)ccc3N)nn2)n1	6
Nc1ccc(-c2ccsc2)cc1NC(=O)CCc1cn(CCCCC(=O)O)nn1	0
Nc1ccc(-c2cccnc2)cc1NC(=O)CCc1cn(Cc2ccc3ccccc3c2)nn1	19
Nc1ccc(-c2ccsc2)cc1NC(=O)CCc1cn(CCc2ccccc2[N+](=O)[O-])nn1	23
Cc1ccccc1CCn1cc(C(=O)Nc2cc(-c3ccsc3)ccc2N)nn1	0
Nc1ccc(-c2ccc(F)cc2)cc1NC(=O)CCc1cn(/C=C/c2ccccc2)nn1	3
Nc1ccc(-c2ccc(F)cc2)cc1NC(=O)CCc1cn(-c2ccccc2-c2ccccc2)nn1	8
Cc1csc(CCn2cc(-c3ccc(C(=O)Nc4cc(-c5cccs5)ccc4N)s3)nn2)n1	74
Cc1ccccc1CCn1cc(C(=O)Nc2cc(-c3cccs3)ccc2N)nn1	0

SMILES	inhibition [%]
Nc1ccc(-c2ccsc2)cc1NC(=O)CCc1cn(-c2cccc3ccccc23)nn1	0
Nc1ccc(-n2cc(C(=O)Nc3cc(-c4ccc(F)cc4)ccc3N)nn2)cc1	42
Nc1ccc(-c2cccs2)cc1NC(=O)c1ccc(-c2cn(CCc3ccccn3)nn2)s1	71
Nc1ccc(-c2ccc(F)cc2)cc1NC(=O)c1cn(CCc2ccsc2)nn1	1
Nc1ccc(-c2ccsc2)cc1NC(=O)CCc1cn(CCc2cccc(Cl)c2)nn1	15
Nc1ccc(-c2cccnc2)cc1NC(=O)CCc1cn(CCCc2ccccc2)nn1	15
Nc1ccc(-c2ccccc2)cc1NC(=O)c1cn(CCCc2ccccc2)nn1	6
Nc1ccc(-c2ccccc2)cc1NC(=O)c1cn(CCN2CCOCC2)nn1	0
Nc1ccc(-c2ccccc2)cc1NC(=O)CCc1cn(-c2ccc([N+](=O)[O-])cc2)nn1	0
Nc1ccc(-c2cccs2)cc1NC(=O)c1ccc(-c2cn(Cc3ccc4ccccc4c3)nn2)cc1	12
Nc1ccc(-c2cccs2)cc1NC(=O)c1ccc(-c2cn(Cc3ccc(Oc4ccccc4)cc3)nn2)s1	0
Nc1ccc(-c2cccs2)cc1NC(=O)c1ccc(-c2cn(CC(=O)c3ccccc3)nn2)s1	22
Nc1ccc(-c2cccnc2)cc1NC(=O)CCc1cn(CCCCCCC(=O)O)nn1	0
Cc1ccc(-n2cc(-c3ccc(C(=O)Nc4cc(-c5cccs5)ccc4N)s3)nn2)cc1C	0
Nc1ccc(-c2ccc(F)cc2)cc1NC(=O)CCc1cn(-c2ccc([N+](=O)[O-])cc2)nn1	7
Nc1ccc(-c2cccs2)cc1NC(=O)c1cn(CCc2ccccc2[N+](=O)[O-])nn1	19
Nc1ccc(-c2ccccc2)cc1NC(=O)CCc1cn(CCC2CCCC2)nn1	0
Nc1ccc(-c2cccs2)cc1NC(=O)CCc1cn(CCc2ccc([N+](=O)[O-])cc2)nn1	27
Nc1ccc(-c2ccsc2)cc1NC(=O)c1cn(CCc2ccccc2C(F)(F)F)nn1	0
Nc1ccc(-c2ccccc2)cc1NC(=O)c1cn(C[S+]([O-])c2ccccc2)nn1 (stereo unspecified)	0
Nc1ccc(-c2ccc(F)cc2)cc1NC(=O)CCc1cn(CCc2ccsc2)nn1	16
Nc1ccc(-c2cccs2)cc1NC(=O)CCc1cn(-c2ccc(I)cc2)nn1	8
Cc1cccc(C)c1NC(=O)Cn1cc(CCC(=O)Nc2cc(-c3ccsc3)ccc2N)nn1	18
Nc1ccc(-n2cc(CCC(=O)Nc3cc(-c4cccnc4)ccc3N)nn2)cc1	5

SMILES	inhibition [%]
Nc1ccc(-c2ccccc2)cc1NC(=O)CCc1cn(CCCCC(=O)O)nn1	0
Nc1ccc(-n2cc(C(=O)Nc3cc(-c4ccccc4)ccc3N)nn2)cc1	11
Nc1ccc(-c2cccs2)cc1NC(=O)c1cn(CCN2CCOCC2)nn1	0
Nc1ccc(-c2cccs2)cc1NC(=O)CCc1cn(CCC2CCCC2)nn1	0
Nc1ccc(-c2cccnc2)cc1NC(=O)CCc1cn(CCCCCc2ccccc2)nn1	16
Nc1ccc(-c2cccs2)cc1NC(=O)CCc1cn(CCCCCC(=O)O)nn1	6
Nc1ccc(-c2ccccc2)cc1NC(=O)CCc1cn(Cc2cc3ccccc3s2)nn1	0
Nc1ccc(-c2ccc(F)cc2)cc1NC(=O)c1cn(Cc2ccc3ccccc3c2)nn1	8
Nc1ccc(-c2cccnc2)cc1NC(=O)CCc1cn(CCc2cccc([N+](=O)[O-])c2)nn1	15
Nc1ccc(-c2ccsc2)cc1NC(=O)CCc1cn(CCc2ccc(C(=O)O)cc2)nn1	31
Nc1ccc(-c2ccsc2)cc1NC(=O)c1cn(Cc2cc3ccccc3s2)nn1	0
Nc1ccc(-c2cccs2)cc1NC(=O)c1cn(CCCc2ccccc2)nn1	9
Nc1ccc(-c2ccsc2)cc1NC(=O)c1cn(Cc2ccc(OC(F)(F)F)cc2)nn1	0
Nc1ccc(-c2ccsc2)cc1NC(=O)c1cn(CCc2ccccc2)nn1	17
Nc1ccc(-c2cccs2)cc1NC(=O)c1cn(Cc2ccc(C(=O)O)cc2)nn1	32
Nc1ccc(-c2cccs2)cc1NC(=O)CCc1cn(Cc2cccc3ccccc23)nn1	9
Nc1ccc(-c2cccs2)cc1NC(=O)c1cccc(-c2cn(CCc3c[nH]c4ccccc34)nn2)c1	6
Cc1cccc(C)c1NC(=O)Cn1cc(CCC(=O)Nc2cc(-c3cccs3)ccc2N)nn1	19
Nc1ccc(-c2ccccc2)cc1NC(=O)CCc1cn(CCc2ccccc2Cl)nn1	0
Nc1ccc(-c2cccs2)cc1NC(=O)c1cn(Cc2cccc(-c3ccccc3)c2)nn1	6
Nc1ccc(-c2cccs2)cc1NC(=O)c1ccc(-c2cn(CCCCCc3ccccc3)nn2)cc1	0
Nc1ccc(-c2ccccc2)cc1NC(=O)c1cn(/C=C/c2ccccc2)nn1	3
Nc1ccc(-c2ccsc2)cc1NC(=O)CCc1cn(CCCCCCCC(=O)O)nn1	1
Nc1ccc(-c2cccs2)cc1NC(=O)c1ccc(-c2cn(CCc3cccc([N+](=O)[O-])c3)nn2)cc1	25

SMILES	inhibition [%]
Nc1ccc(-c2ccsc2)cc1NC(=O)CCc1cn(Cc2ccc(Oc3ccccc3)cc2)nn1	0
Nc1ccc(-c2cccs2)cc1NC(=O)c1cn(CCc2cccc(Cl)c2)nn1	2
Nc1ccc(-c2ccsc2)cc1NC(=O)c1cn(CCc2ccccc2Cl)nn1	0
COc1ccc(-n2cc(C(=O)Nc3cc(-c4ccccc4)ccc3N)nn2)cc1	2
Cc1ccc(CCn2cc(C(=O)Nc3cc(-c4cccs4)ccc3N)nn2)cc1	16
Nc1ccc(-c2cccs2)cc1NC(=O)c1cn(Cc2nc3ccccc3[nH]2)nn1	20
Nc1ccc(-c2ccsc2)cc1NC(=O)CCc1cn(CC(=O)c2ccccc2)nn1	12
Nc1ccc(-c2cccs2)cc1NC(=O)c1cccc(-c2cn(Cc3ccc(Oc4ccccc4)cc3)nn2)c1	0
Nc1ccc(-c2ccsc2)cc1NC(=O)c1cn(-c2ccc(Br)cc2)nn1	0
Nc1ccc(-c2cccs2)cc1NC(=O)c1ccc(-c2cn(-c3ccc(Br)cc3)nn2)s1	0
Nc1ccc(-c2ccccc2)cc1NC(=O)CCc1cn(CCN2CCc3ccccc3C2)nn1	11
Nc1ccc(-c2cccs2)cc1NC(=O)c1cccc(-c2cn(CS(=O)(=O)c3ccccc3)nn2)c1	3
Nc1ccc(-c2cccs2)cc1NC(=O)c1cccc(-c2cn(CCN3CCc4ccccc4C3)nn2)c1	20
Nc1ccc(-c2cccs2)cc1NC(=O)c1cn(CCCCCC(=O)O)nn1	0
Nc1ccc(-c2cccnc2)cc1NC(=O)CCc1cn(CCc2ccsc2)nn1	1
Nc1ccc(-c2ccccc2)cc1NC(=O)c1cn(CCCCC(=O)O)nn1	0
COc1ccc(-n2cc(C(=O)Nc3cc(-c4ccc(F)cc4)ccc3N)nn2)cc1	16
CCc1ccc(Cn2cc(CCC(=O)Nc3cc(-c4ccccc4)ccc3N)nn2)cc1	1
CCc1ccc(Cn2cc(-c3cccc(C(=O)Nc4cc(-c5cccs5)ccc4N)c3)nn2)cc1	0
Nc1ccc(-c2cccnc2)cc1NC(=O)CCc1cn(CS(=O)(=O)c2ccccc2)nn1	4
Nc1ccc(-c2ccccc2)cc1NC(=O)c1cn(-c2ccccc2-c2ccccc2)nn1	0
Nc1ccc(-c2cccs2)cc1NC(=O)c1ccc(-c2cn(CCCCCCCC(=O)O)nn2)cc1	0
Nc1ccc(-c2ccc(F)cc2)cc1NC(=O)c1cn(Cc2cc3ccccc3s2)nn1	7
Nc1ccc(-c2ccsc2)cc1NC(=O)CCc1cn(CCc2ccc(Cl)cc2)nn1	2
